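Step 1: Grow cells in 96-well plates. Step 2: Expose to compound for 48 hours at 5 concentrations. Step 3: Interpolate endpoints linearly; if unreached, use highest concentration. GI50 marks 50% less growth. TGI: concentration producing complete growth inhibition.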
Tests used:
Assay in all cases: DTP human tumour cell line panel, 48 h
[1] = test system: HOP-92 NSCLC
[2] = test system: HT29 colon
[3] = test system: NCI/ADR-RES ovarian
[4] = test system: SF-539 CNS
[5] = test system: SNB-75 CNS
[6] = test system: U251 CNS
[7] = test system: SR leukemia
[8] = test system: DU-145 prostate
[9] = test system: HS 578T breast
[10] = test system: MDA-N

| SMILES | TGI [1] [µM] | TGI [2] [µM] | TGI [3] [µM] | TGI [4] [µM] | TGI [5] [µM] | TGI [6] [µM] | TGI [7] [µM] | TGI [8] [µM] | TGI [9] [µM] | TGI [10] [µM] | GI50 [8] [µM] | GI50 [1] [µM] | GI50 [9] [µM] | GI50 [3] [µM] | GI50 [4] [µM] | GI50 [5] [µM] | GI50 [7] [µM] | GI50 [6] [µM] |
| --- | --- | --- | --- | --- | --- | --- | --- | --- | --- | --- | --- | --- | --- | --- | --- | --- | --- | --- |
| NC(=O)c1ncn2c1NC(=O)CC2 | > 100 | > 100 | > 100 | > 100 | > 100 | > 100 |  |  |  |  |  |  |  |  |  |  |  |  |
| O=C(OCc1ccccc1)C(Cc1ccccc1)N(Cc1ccccc1)Cc1ccccc1 (stereo unspecified) | > 100 | > 100 |  | > 100 | > 100 | > 100 | > 100 |  |  |  |  |  |  |  |  |  |  |  |
| COP(=O)(OC)C12CCOCCN1c1ccccc1C2=O (stereo unspecified) | > 100 | > 100 | > 100 | > 100 | > 100 | > 100 |  | > 100 | > 100 | > 100 |  |  |  |  |  |  |  |  |
| c1ccc(-c2cnc(-c3ccc(-c4ncc(-c5ccccc5)o4)cc3)o2)cc1 | > 100 | > 100 | > 100 |  | > 100 | > 100 |  | > 100 | > 100 | > 100 |  |  |  |  |  |  |  |  |
| CC(C)(C)OC(=O)n1c(-c2ccccc2F)cc(=O)c2cc3c(cc21)OCO3 | > 100 | 0.368 | 0.0555 | > 72.9 | > 100 | > 32.9 | > 34.6 | > 100 | 1.41 |  |  |  |  |  |  |  |  |  |
| COc1ccc(-c2csc(NC(=O)CSc3nc(C)c(-c4ccccc4)n3Nc3ccccc3)n2)cc1 | > 100 |  | > 100 | > 100 | > 100 | > 100 | > 100 | > 100 | > 100 |  | 18 | > 100 | 6.69 | 4.21 | > 100 | 12.8 | 5.47 | > 100 |
| CCCCN(CCCC)C(=C(C(Cl)=C(Cl)Cl)[N+](=O)[O-])N(CCCC)CCCC | > 100 |  | > 100 | > 100 | > 100 | > 100 |  | > 100 |  | > 100 |  |  |  |  |  |  |  |  |
| CCOC(=O)C1(C(=O)OCC)CCCN1C(=O)[C@H](CNC(=O)OC(C)(C)C)NC(=O)OCc1ccccc1 |  | > 100 | > 100 | > 100 | > 100 | > 100 | > 100 | > 100 | > 100 | > 100 |  |  |  |  |  |  |  |  |
| CCCCC#CS(=O)(=O)C(F)(F)F | > 84.4 | > 100 | > 100 | > 100 | 98.3 | > 100 |  |  |  |  |  |  |  |  |  |  |  |  |
| COc1cc(CNc2nc3cc(C(F)(F)F)ccc3nc2-c2ccccc2)cc(OC)c1OC |  | > 100 | 81.8 | > 100 | 44 | > 100 | > 100 | > 100 | > 100 | > 100 |  |  |  |  |  |  |  |  |
| O=C(CNCc1ccccc1)Oc1c(Cl)c(Cl)c(Cl)c(Cl)c1Cl |  | > 100 | > 100 | 95.6 | > 100 | 70.5 | 47.9 | 44.3 | 50.6 |  |  |  |  |  |  |  |  |  |
| COC(=O)C1=C(O)C(C(=O)OC)[C@@]2(O)[C@@H](C(=O)OC)[C@H](C)[C@@H](C)[C@@H]1[C@@H]2C(=O)OC (stereo partly specified) |  | > 100 |  | > 100 | > 100 | > 100 | > 100 | > 100 | > 100 | 50.1 |  |  |  |  |  |  |  |  |
| COc1ccc2c(c1)CCN=C2c1ccccc1CCCCl | > 100 | 58.2 | > 100 | 45.6 | > 100 | > 100 |  | > 100 | 96.5 |  |  |  |  |  |  |  |  |  |
| C=C1C(=O)OC2/C=C(/C)C3(O)OC(C)(CC(OC(=O)C(C)C)C12)CC3OC(C)=O (stereo unspecified) | 40.1 | 22 | > 100 | > 29.5 | > 100 | 38.2 | > 31.5 | > 69.6 |  | 4.94 |  |  |  |  |  |  |  |  |
| COC(=O)C1(Cc2ccc3c(c2)CCC3)Cc2ccccc2C1=O (stereo unspecified) |  | 30.3 | > 100 | 32.9 | > 100 | 37.2 | > 100 | 67.8 | 87.6 | 13.3 |  |  |  |  |  |  |  |  |
| Cc1ccc(S(=O)(=O)NC(=O)NNc2ccc(F)cc2)cc1 | > 100 | > 100 | > 100 | > 100 | > 75.8 | > 100 |  | > 100 | > 100 | > 100 |  |  |  |  |  |  |  |  |
| CCCCC/C(C=O)=C\c1ccccc1 | > 100 | > 100 | > 100 | > 100 | > 100 | > 100 | > 100 | > 100 | > 100 |  |  |  |  |  |  |  |  |  |
| CC(C)CCn1nc(N)c2nc3ccccc3nc21 | > 100 | > 100 | > 100 | > 100 | > 100 | > 100 | > 100 |  | > 100 | > 100 |  |  |  |  |  |  |  |  |
| CSC(SC)=C1C(=O)N(c2ccccc2)N=C1C | 33.7 | > 100 | > 100 | > 100 | > 100 | > 100 |  |  | > 100 | > 100 |  |  |  |  |  |  |  |  |
| N#CC(=N)c1ncn(-c2ccccc2N)c1N |  | > 100 | > 100 | > 100 | > 100 | > 100 | > 100 | > 100 | > 100 | > 100 |  |  |  |  |  |  |  |  |
| COc1cc(C=C2C(=O)NC(=S)NC2=O)cc(OC)c1OC | > 100 | > 100 | > 100 | > 100 | > 100 | > 100 |  | > 100 | > 100 | > 100 |  |  |  |  |  |  |  |  |
| O=C(O)CSC(NC(=O)C(C(F)(F)F)C(F)(F)F)(C(F)(F)F)C(F)(F)F |  | > 100 | > 100 | > 100 | > 100 | > 100 | > 100 |  | > 100 | > 100 |  |  |  |  |  |  |  |  |
| Clc1ccc(Cl)c(SCCCN2CCNCC2)c1 | 32.6 | 37.7 | 36.2 | 51.4 | 35.3 | 34.6 |  | 36 | 35.9 |  |  |  |  |  |  |  |  |  |
